# Reference: patent US12616753B2, “HSP70 inhibitors and methods of using same” (THE WISTAR INSTITUTE, priority 2020, dated 2026)
# Tests used:
# [1] = tested on: CRC cell lines (SW620, HT-29, HCT 116+/−p53, RKO, and LS411N); assay: Alamar Blue cell viability assay, human CRC panel; assay type: cell-based; details: SW620, 72 hours
# Procedure: FIGS. 4A-4F show AP-4-139B is efficacious as a single agent against human CRC in vitro and in vivo. FIG. 4A: Three CRC cell lines (HT-29, LS411N, and SW620) were treated with 10 μM of PET-16 or AP-4-139B for 48 hours. Cell were then subjected to viability assays using Trypan Blue exclusion. *** p<0.001. […] FIGS. 4B-4C: A panel of six CRC cell lines (SW620, HT-29, HCT 116+/−p53, RKO, and LS411N) were plated at a density of 1,000 cells per well in 96-well plates. The next day, cells were treated with the indicated inhibitors for 72 hours. Cells were then subjected to the Alamar Blue cell viability assays. Shown are representative IC50 values of an average of six technical replicates and two biological replicates. FIG. 4D: 2.5×10^6 HT-29 cells were injected subcutaneously into the right flank of NSG mice. Once tumors reached an approximate volume of 100 mm^3, mice were separated randomly into two groups: control vs. AP-4-139B. Mice were treated with 12.5 mg/kg AP-4-139B three times a week. All mice were euthanized 22 days after the start of treatment. Tumor volumes were recorded using digital calipers and using the formula v=length×width^2×0.52. *** p<0.001. n=10 mice per group. FIG. 4E: Immunohistochemistry (IHC) analysis of HT-29 xenograft tumors treated with AP-4-139B. Shown are representative images (4-6 random fields of view per condition) of Ki67 (proliferation) and Cleaved Lamin A (cell death). n=4 mice per group. Scale bar=100 μm. Respective IgG antibody was used as the negative control.
# [2] = tested on: MC38 and HT-29 cells; assay: Extracellular ATP release (CellTiter-Glo); assay type: cell-based; details: MC38 cells, increasing concentrations, 3 hours
# Procedure: FIG. 6A: 1×10^6 MC38 cells were injected subcutaneously into the right flank of 6-8-week-old male C57Bl/6 mice. Once tumors reached an approximate volume of 100 mm^3, mice were treated with AP-4-139B (10 mg/kg) every 48 hours. 20 days after the start of treatment, tumors were excised, weighed, minced and digested. Tumor-infiltrating and splenic conventional CD4 (cCD4) (Live CD45^+ DUMP^− CD3^+CD4^+Foxp3^−), Tregs (Live CD45^+ DUMP^− CD3^+CD4^+Foxp3^+), CD8 (Live CD45^+ DUMP^− CD3^+CD8^+) T-cells, and Dendritic Cells (Live CD45^+ DUMP^− CD3^−CD11c^+MHCII^+) numbers were assessed by flow cytometry. * p<0.05, n.s. not significant. n=8 mice per group. FIG. 6B: MC38 and HT-29 cells were treated with the indicated concentrations of AP-4-139B for either 8 or 24 hours; media was collected and subjected to WB for HMGB1. Data shown are representative of three technical replicates. FIG. 6C: MC38 and HT-29 cells were treated with the indicated concentrations of AP-4-139B for three hours and then assayed for extracellular ATP release. Each graphical representation indicates the mean±the standard deviation of three independent experiments relative to control (DMSO-treated) cells.
# FIG. 6D: MC38 cells were treated with 5 μM AP-4-139B for 24 hours and subjected to flow cytometry, using Alexa488-tagged calreticulin antibody. *** p<0.001, n=4 biological replicates performed in duplicate. FIG. 6E: MC38 cells were treated with increasing concentrations of AP-4-139B, G-TPP, 17-AAG or Metformin for 3 hours and then assayed for extracellular ATP release. Three independent cultures were assayed for each treatment, and DMSO-treated cells were used as internal controls. Error bars represent standard deviation (SD).
# The XF Cell Mito Stress Test was performed. Briefly, HT-29 (10,000 cells/well), IMR90 (15,000 cells/well), and 1205Lu (15,000 cells/well) were plated in Seahorse 96-well cell culture microplates, treated with the respective inhibitors for 24 hours, and subjected to the Seahorse XF Cell Mito Stress Test, according to the manufacturer's protocol (Agilent Technologies). For extracellular HMGB1 release, 1×10^6 MC38 cells were plated in 10-cm dishes. The next day, cells were treated with the indicated concentrations of AP-4-139B for 8 or 24 hours in serum-free media. Media was collected and spun down at 2,000 rpm for 5 minutes to pellet any remaining cells or debris. Media was then transferred to Amicon Ultra 15, 10K tubes and spun down at 4,000 rpm for 45 minutes, according to the manufacturer's protocol. […] For extracellular ATP release, ATP was measured using the CellTiter-Glo Kit (Promega catalog #G7570). […] 10 μl of CellTiter-Glo Reaction Mix was then mixed with 10 μl of culture media; the luminescence signal was detected using a luminometer.
# [3] = target: T1, full length human HSP70 (Homo sapiens, UniProt P0DMV8); assay: HSP70 mediated ATPase assay (Transcreener ADP-FI); assay type: biochemical
# T1 construct: Five μL of 30 nM full length human HSP70 in assay buffer
# Procedure: FIGS. 1A-1D show ATPase inhibition and direct binding of a novel HSP70 inhibitor. FIG. 1A: Compounds AP-3-97 and AP-4-139B are direct inhibitors of HSP70. HSP70 mediated ATPase activity was assessed using the TRANSCREENER® ADP-FI assay. Five microliters of 30 nM purified human HSP70 in assay buffer was added to test compounds for 30 minutes, followed by addition of excess ATP. After 15 minutes, reactions were stopped and fluorescence was assessed on a plate reader. Data are normalized to percent inhibition, where 100% is the value in the absence of HSP70, and 0% is the value in the presence of HSP70. Compounds shown include PET-16 (positive control) and the novel HSP70 inhibitors AP-3-97 and AP-4-139B. VY-3-277 was used as a negative control. FIG. 1B: Compound AP-4-139B binds HSP70. Whole cell extracts (WCE) from H1299 cells were incubated with 10 μM Biotin or with a Biotin-labeled variant of AP-4-139B (Biotin-AP-4-139B) for 5 hours. Biotin-AP-4-139B containing complexes were captured using NeutrAvidin resins and separated by SDS-PAGE. The Coomassie-stained protein band of approximately 70 kDa was excised and subjected to tryptic digestion and liquid chromatography-tandem mass spectrometry, and identified to be HSP70. FIG. 1C: H1299 cells were pre-treated with 10 μM of VY-3-277, PET-16, or AP-4-139B for 1 hour prior to the addition of 10 μM Biotin-AP-4-139B for 5 hours. Biotin-AP-4-139B containing complexes were captured by NeutrAvidin resins and immunoblotted using the indicated antibodies following SDS-PAGE. Whole cell extracts (WCE) were examined for the expression of HSP70 (input) and GRP75 (input) by Western blot analysis. FIG. 1D: Compound AP-4-139B directly binds purified human HSP70. […] Data were analyzed using the evaluation software from Biacore and the resulting sensograms were exported and re-plotted in GraphPad Prism.
# HSP70 mediated ATPase activity was measured using the Transcreener® ADP-FI assay (BellBrook Labs). […] After 30 minutes, fluorescence at 560/620 nm was measured using the Envision plate reader. […]
# [4] = target: N-terminal HIS tagged HSP70 (Homo sapiens, UniProt P0DMV8); assay: Small molecule binding to HSP70 using SPR (Biacore T200)
# Procedure: SPR experiments were conducted using the Biacore T200. Approximately 20,000 RU of N-terminal HIS tagged HSP70 was immobilized on a multi-dentate NTA derivatized linear carboxylate sensor chip (NICH1500M, Xantec Bioanalytics). The running buffer was PBS containing 2 mM MgCl2, 0.05% Tween, and 5% DMSO. Test compounds were diluted at 20× final concentration in 100% DMSO and then diluted into running buffer without DMSO so that the DMSO concentrations in both the sample and the running buffer were similar. Flow rate was 30 μL/min, contact time for each sample concentration was 30 seconds, followed by a 60 second dissociation time. Data were analyzed using the Biacore evaluation software and the resulting sensograms exported and re-plotted in GraphPad Prism.
# The next studies sought to determine whether AP-4-139B interacts directly with HSP70. To accomplish this, full-length His-tagged human HSP70 was used, and it was immobilized on a high affinity poly-Ni-NTA sensor chip for surface plasmon resonance experiments on a Biacore T200. This HSP70-loaded chip was incubated with AP-4-139B or the negative control VY-3-277. As a positive control the adenosine-derived HSP70 inhibitor Ver-155008 was used (Massey et al., Cancer Chemother Pharmacol. 2010 August; 66(3):535-45).
# Chain of N-terminal HIS tagged HSP70 (P0DMV8 whole entry): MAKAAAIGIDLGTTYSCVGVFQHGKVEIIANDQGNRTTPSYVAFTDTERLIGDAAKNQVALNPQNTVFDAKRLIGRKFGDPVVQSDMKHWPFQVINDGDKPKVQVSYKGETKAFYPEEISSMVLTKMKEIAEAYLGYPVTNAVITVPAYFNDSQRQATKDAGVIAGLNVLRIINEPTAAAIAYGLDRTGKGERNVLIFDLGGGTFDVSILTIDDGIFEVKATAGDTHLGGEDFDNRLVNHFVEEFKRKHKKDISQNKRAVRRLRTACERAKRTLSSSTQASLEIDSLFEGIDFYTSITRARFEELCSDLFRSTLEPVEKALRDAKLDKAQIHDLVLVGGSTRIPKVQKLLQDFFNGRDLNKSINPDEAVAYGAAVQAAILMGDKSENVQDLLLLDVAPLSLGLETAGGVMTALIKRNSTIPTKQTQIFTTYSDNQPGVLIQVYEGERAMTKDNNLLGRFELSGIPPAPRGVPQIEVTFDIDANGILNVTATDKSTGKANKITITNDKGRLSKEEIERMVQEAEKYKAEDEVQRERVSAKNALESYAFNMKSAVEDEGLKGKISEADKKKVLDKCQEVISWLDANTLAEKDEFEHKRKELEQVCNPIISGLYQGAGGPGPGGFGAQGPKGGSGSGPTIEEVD
# T1 sequence (P0DMV8 whole entry): as above
Structure (SMILES),sensitivity of SW620 cells [1],"ATP release, comparison of compounds [2]",other results
"O=c1[nH]cc(F)c(=O)[nH]1 [5-FU, 5-fluoro-uracil]",highly resistant,–,–
"C=CCNC1=C2C[C@@H](C)C[C@H](OC)[C@H](O)[C@@H](C)/C=C(\C)[C@H](OC(N)=O)[C@@H](OC)/C=C\C=C(/C)C(=O)NC(=CC1=O)C2=O [17-AAG, reference compound]",–,"induced ATP release, albeit to a lesser extent",–
"O=S(=O)(NCCCCCC[P+](c1ccccc1)(c1ccccc1)c1ccccc1)c1ccc2c(c1)oc1ccccc12 [AP-3-97, (6-(Dibenzo[b,d]furan-3-sulfonamido)hexyl)triphenylphosphonium bromide]",–,–,inhibition of HSP70 ATPase activity (in words) [3]: markedly superior potency
"N#Cc1ccc(COC[C@H]2O[C@@H](n3c(NCc4ccc(Cl)c(Cl)c4)nc4c(N)ncnc43)[C@H](O)[C@@H]2O)cc1 [Ver-155008, reference compound]",–,–,binding to sensor chips loaded with HSP70 [4]: reproducibly bound in concentration-dependent manner
"CN(C)C(=N)N=C(N)N [metformin, reference compound]",–,"induced ATP release, albeit to a lesser extent",–
O=C1[O][Pt]2([NH][C@@H]3CCCC[C@H]3[NH]2)[O]C1=O [oxaliplatin],highly resistant,–,–
